Source: US20040110771A1, “7-(r)-aminotriazolopyrimidines, the production thereof and use of the same for combatting phytopathogenic fungi” (priority 2000, published 2004)

Assays:
Type in all cases: in vivo
Septoria tritici = assay: Protective activity against Septoria foliar blotch disease of wheat caused by Septoria tritici; conditions: wheat seedlings "Riband", inoculated 24 h after spraying, 2 weeks
Protocol: (§1) The active compounds were prepared separately or jointly as a 10% strength emulsion in a mixture of 70% by weight of cyclohexanone, 20% by weight of Nekanil® LN (Lutensol® AP6, wetting agent having emulsifying and dispersing action based on ethoxylated alkylphenols) and 10% by weight of Wettol® EM (nonionic emulsifier based on ethoxylated castor oil) and diluted with water to the desired concentration.
Leaves of potted wheat seedlings of the cultivar “Riband” were sprayed to runoff point with an aqueous preparation of active compound which had been prepared from a stock solution made of 10% of active compound, 85% of cyclohexanone and 5% of emulsifier. 24 hours after the spray coating had dried on, they were inoculated with an aqueous spore suspension of Septoria tritici. The suspension contained 2.0×10^6 spores/ml. The test plants were then placed in a greenhouse at 18-22° C. and a relative atmospheric humidity of close to 100%. After 2 weeks, the extent of the development of the disease was determined visually in % infection of the entire leaf area.

Pyrenophora teres = assay: Activity against net blotch of barley caused by Pyrenophora teres; conditions: barley seedlings "Igri", inoculated 24 h after spraying, 6 days
Protocol: as §1
Leaves of potted barley seedlings of the cultivar “Igri” were sprayed to runoff point with an aqueous preparation of active compound which had been prepared from a stock solution made of 10% of active compound, 85% of cyclohexanone and 5% of emulsifier and were inoculated 24 hours after the spray coating had dried on with an aqueous spore suspension of Pyrenophora teres, the net blotch pathogen. The test plants were then placed in a greenhouse at 20-24° C. and 95-100% relative atmospheric humidity. After 6 days, the extent of the development of the disease was determined visually in % infection of the entire leaf area.

[1] = test system: Blumeria graminis forma specialis tritici; assay: Activity against mildew of wheat caused by Blumeria graminis forma specialis tritici; conditions: wheat seedlings "Kanzler", dusted with spores 24 h after spraying, 7 days
Protocol: as §1
Leaves of potted wheat seedlings of the cultivar “Kanzler” were sprayed to runoff point with an aqueous preparation of active compound which had been prepared from a stock solution made of 10% of active compound, 85% of cyclohexanone and 5% of emulsifier and were dusted 24 hours after the spray coating had dried on with spores of mildew of wheat (Blumeria graminis forma specialis tritici). The test plants were then placed in a greenhouse at 20-24° C. and 60-90% relative atmospheric humidity. After 7 days, the extent of the mildew development was determined visually in % infection of the entire leaf area.

Puccinia recondita = assay: Curative activity against brown rust of wheat caused by Puccinia recondita; conditions: curative spray 24 h after inoculation, wheat seedlings "Kanzler", 7 days
Protocol: as §1
Leaves of potted wheat seedlings of the cultivar “Kanzler” were dusted with spores of brown rust (Puccinia recondita). The pots were then placed in a chamber with high atmospheric humidity (90 to 95%) at 20-22° C. for 24 hours. During this period, the spores germinated and the germinal tubes penetrated into the leaf tissue. The following day, the infected plants were sprayed to runoff point with an aqueous preparation of active compound which had been prepared from a stock solution made of 10% of active compound, 85% of cyclohexanone and 5% of emulsifier. After the spray coating had dried on, the test plants were cultivated in a greenhouse at 20-22° C. and 65-70% relative atmospheric humidity for 7 days. The extent of the rust fungus development on the leaves was then determined.

| Structure (SMILES) | % infection of the leaves after application of an aqueous preparation comprising . . . ppm of active compound (Septoria tritici; 16 ppm) [%] | % infection of the leaves after application of an aqueous preparation comprising . . . ppm of active compound (Septoria tritici; 63 ppm) [%] | % infection of the leaves after application of an aqueous preparation comprising . . . ppm of active compound (Septoria tritici; 250 ppm) [%] | % infection of the leaves after application of an aqueous preparation comprising . . . ppm of active compound (Pyrenophora teres; 16 ppm) [%] | % infection of the leaves after application of an aqueous preparation comprising . . . ppm of active compound (Pyrenophora teres; 63 ppm) [%] | % infection of the leaves after application of an aqueous preparation comprising . . . ppm of active compound (Pyrenophora teres; 250 ppm) [%] | % infection of the leaves after application of an aqueous preparation comprising . . . ppm of active compound ([1]; 16 ppm) [%] | % infection of the leaves after application of an aqueous preparation comprising . . . ppm of active compound ([1]; 63 ppm) [%] | % infection of the leaves after application of an aqueous preparation comprising . . . ppm of active compound ([1]; 250 ppm) [%] | % infection of the leaves after application of an aqueous preparation comprising . . . ppm of active compound (Puccinia recondita; 63 ppm) [%] | % infection of the leaves after application of an aqueous preparation comprising . . . ppm of active compound (Puccinia recondita; 250 ppm) [%] | % infection of the leaves after application of an aqueous preparation comprising . . . ppm of active compound (Puccinia recondita; 16 ppm) [%] |
| --- | --- | --- | --- | --- | --- | --- | --- | --- | --- | --- | --- | --- |
| C[C@@H](Nc1c(-c2ccccc2Cl)c(Cl)nc2ncnn12)C(C)(C)C (single isomer, unassigned) [I.-44b] | 30 | 10 | 10 |  |  |  |  |  |  |  |  |  |
| CC(C)C(C)Nc1c(-c2c(Cl)cccc2Cl)c(Cl)nc2ncnn12 (stereo not shown) [I.-8] | 70 | 30 | 30 | 40 | 15 | 15 |  |  |  |  |  |  |
| COc1cc(F)c(-c2c(Cl)nc3ncnn3c2N[C@H](C)C(C)C)c(F)c1 [I.-17] | 10 | 10 | 10 |  |  |  | 60 | 60 | 60 |  |  |  |
| COc1cc(F)c(-c2c(Cl)nc3ncnn3c2N[C@H](C)C(C)(C)C)c(F)c1 [I.-18] |  |  | 30 |  |  |  |  |  |  |  |  |  |
| CCC(C)Nc1c(-c2c(F)c(F)c(F)c(F)c2F)c(Cl)nc2ncnn12 (stereo not shown) [I.-19] | 50 | 10 | 10 |  |  | 30 |  | 7 | 7 |  |  |  |
| CC(C)C(C)Nc1c(-c2ccccc2C(F)(F)F)c(Cl)nc2ncnn12 (stereo not shown) [I.-25] | 0 | 0 | 0 |  |  |  |  |  |  |  |  |  |
| CC(Nc1c(-c2ccccc2C(F)(F)F)c(Cl)nc2ncnn12)C(C)(C)C (stereo not shown) [I.-26] | 3 | 0 | 0 |  |  |  |  |  |  |  |  |  |
| CC(C)[C@H](C)Nc1c(-c2c(Cl)cccc2Cl)c(Cl)nc2ncnn12 [comparison (S)-amine of I.-8] | 90 | 90 | 90 | 100 | 100 | 100 |  |  |  |  |  |  |
| Cc1cccc(F)c1-c1c(Cl)nc2ncnn2c1NC(C)C(C)C [comparison (S)-amine of I.-11b] |  |  |  |  | 100 | 100 |  | 60 | 60 | 100 | 100 |  |
| CC[C@H](C)Nc1c(-c2c(F)cc(F)cc2F)c(Cl)nc2ncnn12 [comparison (S)-amine of I.-13] |  |  |  | 60 |  |  | 100 | 60 |  | 3 |  | 60 |
| COc1cc(F)c(-c2c(Cl)nc3ncnn3c2N[C@@H](C)C(C)C)c(F)c1 [comparison (S)-amine of I.-17] | 90 | 90 | 90 |  |  |  | 100 | 100 | 100 |  |  |  |
| COc1cc(F)c(-c2c(Cl)nc3ncnn3c2N[C@@H](C)C(C)(C)C)c(F)c1 [comparison (S)-amine of I.-18] |  |  | 80 |  |  |  |  |  |  |  |  |  |
| CCC(C)Nc1c(-c2ccc(F)cc2C)c(Cl)nc2ncnn12 [comparison (S)-amine of I.-22] |  |  |  | 80 | 7 |  | 80 | 70 | 70 | 100 | 100 | 100 |
| Cc1cc(F)ccc1-c1c(Cl)nc2ncnn2c1N[C@@H](C)C(C)C [comparison (S)-amine of I.-23] |  |  |  | 60 |  |  | 60 | 60 | 40 | 100 | 100 | 100 |
| CC(C)[C@H](C)Nc1c(-c2ccccc2C(F)(F)F)c(Cl)nc2ncnn12 [comparison (S)-amine of I.-25] | 100 | 100 | 100 |  |  |  |  |  |  |  |  |  |
| CC(Nc1c(-c2ccccc2C(F)(F)F)c(Cl)nc2ncnn12)C(C)(C)C [comparison (S)-amine of I.-26] | 100 | 100 | 100 |  |  |  |  |  |  |  |  |  |
| CC(Nc1c(-c2ccccc2Cl)c(Cl)nc2ncnn12)C(C)(C)C [comparison (S)-amine of I.-44b] | 80 | 80 | 80 |  |  |  |  |  |  |  |  |  |
